Like-named read-outs stand apart in the source and are kept apart here.
Columns and labels:
[1] = tested on: RSV strain A2; assay: Anti-RSV activity, infectious cytopathic cell protection assay in HEp-2 cells; assay type: cell-based, Respiratory Syncytial Virus (RSV)
Procedure: Antiviral activity against RSV is determined using an infectious cytopathic cell protection assay in HEp-2 cells. In this assay, compounds inhibiting viral infection and/or replication produce a cytoprotective effect against the virus-induced cell killing that can be quantified using a cell viability reagent. The techniques used here are novel adaptations of methods described in published literature (Chapman et al., Antimicrob Agents Chemother. 2007, 51 (9):3346-53.)
HEp-2 cells are obtained from ATCC (Manassas, Va.) and maintained in MEM media supplemented with 10% fetal bovine serum and penicillin/streptomycin. Cells are passaged twice a week and kept at subconfluent stage. Commercial stock of RSV strain A2 (Advanced Biotechnologies, Columbia, Md.) is titered before compound testing to determine the appropriate dilution of the virus stock that generates desirable cytopathic effect in HEp-2 cells.
For antiviral tests, HEp-2 cells are grown in large cell culture flasks to near confluency but not fully so. The compounds to be tested are prediluted in DMSO in 384-well compound dilution plates, either in an 8 or 40 sample per plate standardized dose response format. 3-fold serial dilution increments of each test compound are prepared in the plates and test samples are transferred via acoustic transfer apparatus (Echo, Labcyte) at 100 nl per well into cell culture assay 384-well plates. Each compound dilution is transferred in single or quadruplicate samples into dry assay plates, which are stored until assay is ready to go. The positive and negative controls are laid out in opposite on ends of the plate in vertical blocks (1 column).
Subsequently, an infectious mixture is prepared using an appropriate dilution of virus stock previously determined by titration with cells at a density of 50,000/ml and 20 uL/well is added to test plates w/compounds via automation (uFlow, Biotek). Each plate includes negative and positive controls (16 replicates each) to create 0% and 100% virus inhibition standards, respectively. Following the infection with RSV, testing plates are incubated for 4 days in a 37° C. cell culture incubator. After the incubation, a cell viability reagent, Cell TiterGlo (Promega, Madison, Wis.) is added to the assay plates, which are incubated briefly, and a luminescent readout is measured (Envision, Perkin Elmer) in all the assay plates. The RSV-induced cytopathic effect, percentage inhibition, is determined from the levels of remaining cell viability. These numbers are calculated for each tested concentration relative to the 0% and 100% inhibition controls, and the EC50 value for each compound is determined by non-linear regression as a concentration inhibiting the RSV-induced cytopathic effect by 50%. Various potent anti-RSV tool compounds are used as positive controls for antiviral activity.

[2] = Cytotoxicity assay in HEp-2 cells; assay type: cell-based; conditions: human, uninfected HEp-2 cells, CellTiter Glo
Procedure: (§1) Cytotoxicity of tested compounds is determined in uninfected HEp-2 cells in parallel with the antiviral activity using the cell viability reagent in a similar fashion as described before for other cell types (Cihlar et al., Antimicrob Agents Chemother. 2008,52(2):655-65.). The same protocol as for the determination of antiviral activity is used for the measurement of compound cytotoxicity except that the cells are not infected with RSV. Instead, an uninfected cell mixture at the same density is added at 20 ul/well to plates containing prediluted compounds, also at 100 nl/sample. Assay plates are then incubated for 4 days followed by a cell viability test using the same CellTiter Glo reagent addition and measurement of luminescent readouts. Untreated cell and cells treated at 2 uM puromycin (Sigma, St. Louis, Mo.) serve as 100% and 0% cell viability control, respectively. The percent of cell viability is calculated for each tested compound concentration relative to the 0% and 100% controls and the CC50 value is determined by non-linear regression as a compound concentration reducing the cell viability by 50%.

[3] = Cytotoxicity assay in MT-4 cells; assay type: cell-based; conditions: human, Cell-Titer Glo
Procedure: (§2) The MT-4 cell line was obtained from the NIH AIDS Research and Reference Reagent Program (Germantown, Md.) and cultured in RPMI-1640 medium (Irvine Scientific, Santa Ana, Calif., Cat #9160) supplemented with 10% FBS, 100 units/mL penicillin, 100 units/mL streptomycin, and 2 mM L-Glutamine. The MT-4 cells were passaged twice per week to maintain cell densities below 0.6×10^6 cells/mL. Complete RPMI-1640 media containing 100× concentrations of 3-fold serially diluted compound, ranging from 26 nM to 530 μM, were stamped in quadruplicate into black 384-well plates. After compound addition, 2×10^3 MT-4 cells were added to each well using a MicroFlo liquid dispenser (BioTek, Winooski, Vt.) and the cells were cultured for 5 days at 37° C. in a 5% CO2 incubator. Following the incubation the cells were allowed to equilibrate to 25° C. and cell viability was determined by adding 25 μL of Cell-Titer Glo viability reagent. The mixture was incubated for 10 minutes at 25° C., and the luminescence signal was quantified on a Victor Luminescence plate reader. The CC50 value is defined as the concentration of compound that reduces cell viability by 50% as determined by the Cell-Titer Glo signal. The data were analyzed using Pipeline Pilot Plate Data Analytics Collection software (Version 7.0, Accelrys, San Diego, Calif.). CC50 values were calculated from a non-linear regression analysis using a 4-parameter sigmoidal dose-response equation: Y=Bottom+(Top-Bottom)/(1+10^[(LogCC50-X)*HillSlope]) where the Top and Bottom were fixed at 100% and 0% cell viability, respectively. CC50 values were calculated as the average± standard deviation of 3 independent experiments.

[4] = biological target: T1, RSV ribonucleoprotein (RNP) complexes (Human respiratory syncytial virus A, UniProt P28887); assay: RSV RNP assay (inhibition of RSV RNP transcription); assay type: biochemical, RSV A2; conditions: crude RSV RNP complexes, 90 minute incubation at 30° C., total radiolabled transcripts reduced by 50%
T1 construct: The supernatant (S3) fraction, containing the enriched RSV RNP complexes, was collected; endogenous in cells; host or cells: HEp-2 cells infected with RSV A2; detergent-extracted S3 fraction (crude RNP)
T1 sequence (P28887 whole entry): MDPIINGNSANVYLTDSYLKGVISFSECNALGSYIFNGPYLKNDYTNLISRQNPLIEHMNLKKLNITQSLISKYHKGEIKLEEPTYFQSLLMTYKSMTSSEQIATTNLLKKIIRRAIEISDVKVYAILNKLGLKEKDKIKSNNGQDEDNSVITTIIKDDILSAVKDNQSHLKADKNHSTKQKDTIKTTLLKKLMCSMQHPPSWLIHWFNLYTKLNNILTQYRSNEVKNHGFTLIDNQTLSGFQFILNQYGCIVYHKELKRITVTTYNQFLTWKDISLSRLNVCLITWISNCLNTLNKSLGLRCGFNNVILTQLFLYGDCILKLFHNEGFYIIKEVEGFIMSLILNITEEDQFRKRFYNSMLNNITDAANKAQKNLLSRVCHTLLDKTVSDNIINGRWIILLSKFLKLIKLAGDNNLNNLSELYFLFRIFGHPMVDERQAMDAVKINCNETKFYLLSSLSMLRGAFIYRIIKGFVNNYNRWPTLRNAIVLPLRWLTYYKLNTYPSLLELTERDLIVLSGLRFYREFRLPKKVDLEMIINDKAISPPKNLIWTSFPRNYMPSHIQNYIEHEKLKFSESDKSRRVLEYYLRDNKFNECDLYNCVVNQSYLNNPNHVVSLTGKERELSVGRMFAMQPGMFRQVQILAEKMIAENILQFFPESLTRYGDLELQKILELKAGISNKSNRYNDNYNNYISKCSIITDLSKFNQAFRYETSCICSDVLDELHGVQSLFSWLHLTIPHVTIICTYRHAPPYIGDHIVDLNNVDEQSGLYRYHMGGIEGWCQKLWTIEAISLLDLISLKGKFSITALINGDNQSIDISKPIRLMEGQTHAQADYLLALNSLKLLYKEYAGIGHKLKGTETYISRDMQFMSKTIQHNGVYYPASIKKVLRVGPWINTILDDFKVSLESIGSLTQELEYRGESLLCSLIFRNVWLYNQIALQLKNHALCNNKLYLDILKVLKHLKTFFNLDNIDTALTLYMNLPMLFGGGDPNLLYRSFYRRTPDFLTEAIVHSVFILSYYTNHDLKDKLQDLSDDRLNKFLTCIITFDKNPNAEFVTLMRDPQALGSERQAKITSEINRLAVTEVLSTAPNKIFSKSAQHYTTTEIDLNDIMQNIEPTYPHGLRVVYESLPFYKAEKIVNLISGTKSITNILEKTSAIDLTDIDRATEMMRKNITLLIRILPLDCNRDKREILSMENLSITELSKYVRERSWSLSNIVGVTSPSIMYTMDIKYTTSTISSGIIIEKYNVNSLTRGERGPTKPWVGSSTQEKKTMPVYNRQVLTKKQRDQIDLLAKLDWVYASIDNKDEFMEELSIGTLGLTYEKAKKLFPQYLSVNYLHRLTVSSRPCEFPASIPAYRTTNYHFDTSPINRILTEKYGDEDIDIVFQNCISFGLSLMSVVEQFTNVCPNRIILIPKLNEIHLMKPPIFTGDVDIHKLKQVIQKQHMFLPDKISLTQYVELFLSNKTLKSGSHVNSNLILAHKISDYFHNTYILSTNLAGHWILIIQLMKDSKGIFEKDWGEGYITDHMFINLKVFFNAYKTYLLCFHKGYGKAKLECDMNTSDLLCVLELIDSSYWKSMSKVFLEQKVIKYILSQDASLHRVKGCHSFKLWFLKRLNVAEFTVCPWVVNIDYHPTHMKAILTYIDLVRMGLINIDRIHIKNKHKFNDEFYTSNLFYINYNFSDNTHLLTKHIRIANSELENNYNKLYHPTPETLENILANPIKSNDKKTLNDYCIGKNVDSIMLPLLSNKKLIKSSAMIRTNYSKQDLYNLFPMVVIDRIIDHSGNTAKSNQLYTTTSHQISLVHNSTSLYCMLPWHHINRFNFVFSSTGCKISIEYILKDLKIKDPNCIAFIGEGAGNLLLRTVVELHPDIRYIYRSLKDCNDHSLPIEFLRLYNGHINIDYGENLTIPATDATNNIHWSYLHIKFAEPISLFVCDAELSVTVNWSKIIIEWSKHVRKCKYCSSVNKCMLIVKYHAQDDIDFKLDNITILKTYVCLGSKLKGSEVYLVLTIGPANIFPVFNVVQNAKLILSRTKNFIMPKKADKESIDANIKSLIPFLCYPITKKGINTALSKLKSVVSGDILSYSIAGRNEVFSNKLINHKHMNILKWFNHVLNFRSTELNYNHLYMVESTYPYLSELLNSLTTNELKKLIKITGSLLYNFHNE
T1 sequence (P03421 whole entry, further chain): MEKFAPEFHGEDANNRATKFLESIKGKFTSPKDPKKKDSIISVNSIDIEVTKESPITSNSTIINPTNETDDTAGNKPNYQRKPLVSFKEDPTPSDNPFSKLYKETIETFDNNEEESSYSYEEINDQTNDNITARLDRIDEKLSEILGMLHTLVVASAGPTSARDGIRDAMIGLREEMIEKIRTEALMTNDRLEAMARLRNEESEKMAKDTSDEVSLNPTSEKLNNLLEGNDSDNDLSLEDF
Procedure: RSV ribonucleoprotein (RNP) complexes were prepared from a method modified from Mason et al (1). HEp-2 cells were plated at a density of 7.1×10^4 cells/cm^2 in MEM+10% fetal bovine serum (FBS) and allowed to attach overnight at 37° C. (5% CO2). Following attachment, the cells were infected with RSV A2 (MOI=5) in 35 mL MEM+2% FBS. At 20 hours post-infection, the media was replaced with MEM+2% FBS supplemented with 2 m/mL actinomycin D and returned to 37° C. for one hour. The cells were then washed once with PBS and treated with 35 mL of PBS+250 m/mL lyso-lecithin for one minute, after which all liquid was aspirated. The cells were harvested by scrapping them into 1.2 mL of buffer A [50 mM TRIS acetate (pH 8.0), 100 mM potassium acetate, 1 mM DTT and 2 m/mL actinomycin D] and lysed by repeated passage through an 18 gauge needle (10 times). The cell lysate was placed in ice for 10 minutes and then centrifuged at 2400 g for 10 minutes at 4° C. The supernatant (S1) was removed and the pellet (P1) was disrupted in 600 uL of Buffer B [10 mM TRIS acetate (pH 8.0), 10 mM potassium acetate and 1.5 mM MgCl2] supplemented with 1% Triton X-100 by repeated passage through an 18 gauge needle (10 times). The resuspended pellet was placed in ice for 10 minutes and then centrifuged at 2400 g for 10 minutes at 4° C. The supernatant (S2) was removed and the pellet (P2) was disrupted in 600 uL of Buffer B supplemented with 0.5% deoxycholate and 0.1% Tween 40. The resuspended pellet was placed in ice for 10 minutes and then centrifuged at 2400 g for 10 minutes at 4° C. The supernatant (S3) fraction, containing the enriched RSV RNP complexes, was collected and the protein concentration determined by UV absorbance at 280 nm. Aliquoted RSV RNP S3 fractions were stored at −80° C.
Transcription reactions contained 25 μg of crude RSV RNP complexes in 30 μL of reaction buffer [50 mM TRIS-acetate (pH 8.0), 120 mM potassium acetate, 5% glycerol, 4.5 mM MgCl2, 3 mM DTT, 2 mM ethyleneglycol-bis(2-aminoethylether)-tetraacetic acid (EGTA), 50 μg/mL BSA, 2.5 U RNasin (Promega), ATP, GTP, UTP, CTP and 1.5 uCi [α-^32P] NTP (3000 Ci/mmol)]. The radiolabled nucleotide used in the transcription assay was selected to match the nucleotide analog being evaluated for inhibition of RSV RNP transcription. Cold, competitive NTP was added at a final concentration of one-half its Km (ATP=20 μM, GTP=12.5 μM, UTP=6 μM and CTP=2 μM). The three remaining nucleotides were added at a final concentration of 100 μM.
To determine whether nucleotide analogs inhibited RSV RNP transcription, compounds were added using a 6 step serial dilution in 5-fold increments. Following a 90 minute incubation at 30° C., the RNP reactions were stopped with 350 μL of Qiagen RLT lysis buffer and the RNA was purified using a Qiagen RNeasy 96 kit. […]

[5] = tested on: HEp-2 cells; assay: Cytotoxicity assay in HEp-2 cells; assay type: cell-based; conditions: uninfected HEp-2 cells, 4 days, CellTiter Glo
Procedure: as §1

[6] = tested on: MT-4 cells; assay: Cytotoxicity assay in MT-4 cells; assay type: cell-based; conditions: 5 days, Cell-Titer Glo
Procedure: as §2

[7] = human respiratory syncytial virus, 96 h, RSV A2-induced cytopathic effect in HEp-2 cells, 4 days, Cell TiterGlo, read-out: EC50

SMILES | EC50 [1, 7] | CC50 at 4 days [2] | CC50 at 5 days [3] | IC50 [4] | further results
N#C[C@]1(CO)O[C@@H](c2csc3c(N)ncnc23)[C@H](O)[C@@H]1O [Example 3, (2R,3S,4R,5S)-5-(4-aminothieno[3,2-d]pyrimidin-7-yl)-3,4-dihydroxy-2-(hydroxymelthyl)tetrahydrofuran-2-carbonitrile] | 5 µM | > 50 µM | > 57 µM |  | 
N#C[C@]1(COP(=O)(O)OP(=O)(O)OP(=O)(O)O)O[C@@H](c2csc3c(N)ncnc23)[C@H](F)[C@@H]1O [Example TP2, ((2R,3R,4R,5S)-5-(4-aminothieno[3,2-d]pyrimidin-7-yl)-2-cyano-4-fluoro-3-hydroxytetrahydrofuran-2-yl)methyl tetrahydrogen triphosphate] |  |  |  | 0.042 µM | 
[N-]=[N+]=N[C@]1(COP(=O)(O)OP(=O)(O)OP(=O)(O)O)O[C@@H](c2csc3c(N)ncnc23)[C@H](Cl)[C@@H]1O [Example TP4, ((2R,3R,4R,5S)-5-(4-aminothieno[3,2-d]pyrimidin-7-yl)-2-azido-4-chloro-3-hydroxytetrahydrofuran-2-yl)methyl tetrahydrogen triphosphate] |  |  |  | 0.2 µM | 
N#C[C@]1(COP(=O)(O)OP(=O)(O)OP(=O)(O)O)O[C@@H](c2csc3c(N)ncnc23)[C@H](O)[C@@H]1O [Example TP3, ((2R,3S,4R,5S)-5-(4-aminothieno[3,2-d]pyrimidin-7-yl)-2-cyano-3,4-dihydroxytetrahydrofuran-2-yl)methyl tetrahydrogen triphosphate] |  |  |  | 0.036 µM | 
CCOC(=O)[C@H](C)NP(=O)(OC[C@@]1(N=[N+]=[N-])O[C@@H](c2csc3c(N)ncnc23)[C@H](F)[C@@H]1O)Oc1ccccc1 (stereo partly drawn) [Example PD1, (2S)-ethyl 2-(((((2R,3R,4R,5S)-5-(4-aminothieno[3,2-d]pyrimidin-7-yl)-2-azido-4-fluoro-3-hydroxytetrahydrofuran-2-yl)methoxy)(phenoxy)phosphoryl)amino)propanoate] |  | > 50 µM | 10.4 µM |  | EC50 ([1]; human respiratory syncytial virus, HEp-2, 96 h): 0.556 µM
[N-]=[N+]=N[C@]1(COP(=O)(O)OP(=O)(O)OP(=O)(O)O)O[C@@H](c2csc3c(N)ncnc23)[C@H](F)[C@@H]1O [Example TP1, ((2R,3R,4R,5S)-5-(4-aminothieno[3,2-d]pyrimidin-7-yl)-2-azido-4-fluoro-3-hydroxytetrahydrofuran-2-yl)methyl tetrahydrogen triphosphate] |  |  |  | 0.076 µM | 
[N-]=[N+]=N[C@]1(CO)O[C@@H](c2csc3c(N)ncnc23)[C@H](F)[C@@H]1O [Example 1, (2R,3R,4R,5S)-5-(4-aminothieno[3,2-d]pyrimidin-7-yl)-2-azido-4-fluoro-2-(hydroxymethyl)-tetrahydrofuran-3-ol] | 0.208 µM | > 100 µM | 59 µM |  | 
N#C[C@]1(CO)O[C@@H](c2csc3c(N)ncnc23)[C@H](F)[C@@H]1O [Example 2, (2R,3R,4R,5S)-5-(4-aminothieno[3,2-D]pyrimidin-7-yl)-4-fluoro-3-hydroxy-2-(hydroxymelthyl)tetrahydrofuran-2-carbonitrile] |  |  |  |  | EC50 ([1]; RSV A2-induced cytopathic effect in HEp-2 cells, 4 days, Cell TiterGlo, read-out: EC50): 6.5 µM; CC50 [5]: > 100 µM; CC50 [6]: > 114 µM
[N-]=[N+]=N[C@]1(CO)O[C@@H](c2csc3c(N)ncnc23)[C@H](Cl)[C@@H]1O [Example 4, (2R,3R,4R,5S)-5-(4-Aminothieno[3,2-d]pyrimidin-7-yl)-2-azido-4-chloro-2-(hydroxymethyl)tetrahydrofuran-3-ol] | > 98 µM | > 93 µM | 93 µM |  | 
